Legend:
MCF-7-FL = assay: Cancer cell growth inhibition, MCF-7-FL; format: cell-based; details: Homo sapiens, Breast Cancer, 72 h treatment
Protocol: (§1) Cell culture-based assays were used to evaluate the ability of compounds of the invention to inhibit cancer cell growth inhibition.
(§2) Cells were obtained from the American Type Culture Collection (ATCC). Cells were cultured at 37° C. with 5% CO2 in the appropriate growth medium (see table below), and harvested respectively during the logarithmic growth period and counted with hemocytometer. The cell viability was over 98% by trypan blue exclusion. Cell concentrations were adjusted between 5×10^4 and 2×10^5 cells/ml with respective medium.
(§3) Stock solutions of test compounds and positive drugs Doxorubicin (Zhejiang, Haizheng, China), Paclitaxel (Beijing, Xiehe, China), Vincristin (Shenzhen Wanle, China), 5-FU (Tianjin jinyaoanjisuan, China), Irinotecan (Jiangsu Hengrui, China) and Cisplatin Nanjing zhiyao, China) were prepared in dimethyl sulphoxide (DMSO) or PBS at 20 mM.
(§4) All treatments were performed in triplicate. 10 μl drug solution was added to each well and incubated for 72 hours. At the end of the incubation, 20 μl of the freshly prepared MTS/PMS mixture solution was added to each well and incubated for 4 hours at 37° C. in a humidified, 5% CO2 atmosphere. Absorbance was read at 490 nm using SpectraMAX Plus microplate spectrophotometer. […] In order to calculate IC50, a dose-responsive curve was fitted using nonlinear regression model with a sigmoidal dose response.

BT474 = assay: Cancer cell growth inhibition, BT474; format: cell-based; details: Homo sapiens, BT-474; BT474, Breast Cancer, 72 h treatment
Protocol: as §1, §2, §3, §4

143b = assay: Cancer cell growth inhibition, 143b; format: cell-based; details: Homo sapiens, Osteosarcoma, 72 h treatment
Protocol: as §1, §2, §3, §4

HT-1080 = assay: Cancer cell growth inhibition, HT-1080; format: cell-based; details: Homo sapiens; HT-1080, Fibrosarcoma, 72 h treatment
Protocol: as §1, §2, §3, §4

SK-HEP-1 = assay: Cancer cell growth inhibition, SK-HEP-1; format: cell-based; details: Homo sapiens, SK-HEP1; SK-HEP-1, Liver Cancer, 72 h treatment
Protocol: as §1, §2, §3, §4

MIAPACA-2 = assay: Cancer cell growth inhibition, MIAPACA-2; format: cell-based, human; details: MIAPACA-2, Pancreatic Cancer, 72 h treatment
Protocol: as §1, §2, §3, §4

HCT-116 = assay: Cancer cell growth inhibition, HCT-116; format: cell-based, human; details: HCT-116, Colorectal Cancer, 72 h treatment
Protocol: as §1, §2, §3, §4

HepG2 = assay: Cancer cell growth inhibition, HepG2; format: cell-based, human; details: HepG2, Liver Cancer, 72 h treatment
Protocol: as §1, §2, §3, §4

Human HDAC2 = Human HDAC2 (Homo sapiens (Human), UniProt Q92769); assay: HDAC2 fluorogenic peptide deacetylation assay; format: biochemical; details: human HDAC2, 50 μM substrate, 30° C., 2 h; read-out: IC50 (nM) of enzyme activity HDAC2
Human HDAC6 = Human HDAC6 (Homo sapiens (Human), UniProt Q9UBN7); assay: HDAC6 fluorogenic peptide deacetylation assay; format: biochemical; details: human HDAC6, 50 μM substrate, 30° C., 2 h; read-out: IC50 (nM) of enzyme activity HDAC6
[1] = molecular target: histone deacetylase from rat liver; assay: Rat liver HDAC assay; format: biochemical; details: Boc-Lys(Ac)-AMC substrate, 30° C., 2 h, read-out: IC50 (nM) of enzyme activity Rat liver
Human HDAC8 = Human HDAC8 (Homo sapiens (Human), UniProt Q9BY41); assay: HDAC8 fluorogenic peptide deacetylation assay; format: biochemical; details: human HDAC8, 50 μM substrate, 30° C., 2 h; read-out: IC50 (nM) of enzyme activity HDAC8
Human HDAC3/NcoR2 = Human HDAC3/NcoR2 (Homo sapiens (Human), UniProt O15379); assay: HDAC3 fluorogenic peptide deacetylation assay; format: biochemical; details: human HDAC3/NcoR2, 50 μM substrate, 30° C., 2 h; read-out: IC50 (nM) of enzyme activity HDAC3
Human HDAC1 = Human HDAC1 (Homo sapiens (Human), UniProt Q13547); assay: HDAC1 fluorogenic peptide deacetylation assay; format: biochemical; details: human HDAC1, 50 μM substrate, 30° C., 2 h; read-out: IC50 (nM) of enzyme activity HDAC1
[2] = tested on: Nuclear Extract from HeLa Cells; assay: HeLa Nuclear Extract HDAC assay; format: biochemical, human; details: 50 μM substrate, 30° C., 2 h, read-out: IC50 (nM) of enzyme activity HeLa
Colo205 = assay: Cancer cell growth inhibition, Colo205; format: cell-based; details: Homo sapiens, COLO 205; Colo205, Colorectal Cancer, 72 h treatment
Protocol: as §1, §2, §3, §4

MCF-7-218 = assay: Cancer cell growth inhibition, MCF-7-218; format: cell-based; details: Homo sapiens; MCF-7-218, Breast Cancer, 72 h treatment
Protocol: as §1, §2, §3, §4

Sequence of Human HDAC8 (Q9BY41 whole entry): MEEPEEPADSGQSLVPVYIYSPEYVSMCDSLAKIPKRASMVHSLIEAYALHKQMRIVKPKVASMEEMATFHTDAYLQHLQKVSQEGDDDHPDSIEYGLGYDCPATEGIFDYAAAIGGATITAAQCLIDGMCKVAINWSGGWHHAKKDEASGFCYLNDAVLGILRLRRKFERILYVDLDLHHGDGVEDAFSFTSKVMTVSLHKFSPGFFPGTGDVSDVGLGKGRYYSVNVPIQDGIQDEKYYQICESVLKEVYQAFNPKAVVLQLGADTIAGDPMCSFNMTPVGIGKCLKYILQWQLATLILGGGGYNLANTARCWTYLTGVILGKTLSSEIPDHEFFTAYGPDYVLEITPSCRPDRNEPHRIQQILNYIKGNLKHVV
Sequence of Human HDAC6 (Q9UBN7 whole entry): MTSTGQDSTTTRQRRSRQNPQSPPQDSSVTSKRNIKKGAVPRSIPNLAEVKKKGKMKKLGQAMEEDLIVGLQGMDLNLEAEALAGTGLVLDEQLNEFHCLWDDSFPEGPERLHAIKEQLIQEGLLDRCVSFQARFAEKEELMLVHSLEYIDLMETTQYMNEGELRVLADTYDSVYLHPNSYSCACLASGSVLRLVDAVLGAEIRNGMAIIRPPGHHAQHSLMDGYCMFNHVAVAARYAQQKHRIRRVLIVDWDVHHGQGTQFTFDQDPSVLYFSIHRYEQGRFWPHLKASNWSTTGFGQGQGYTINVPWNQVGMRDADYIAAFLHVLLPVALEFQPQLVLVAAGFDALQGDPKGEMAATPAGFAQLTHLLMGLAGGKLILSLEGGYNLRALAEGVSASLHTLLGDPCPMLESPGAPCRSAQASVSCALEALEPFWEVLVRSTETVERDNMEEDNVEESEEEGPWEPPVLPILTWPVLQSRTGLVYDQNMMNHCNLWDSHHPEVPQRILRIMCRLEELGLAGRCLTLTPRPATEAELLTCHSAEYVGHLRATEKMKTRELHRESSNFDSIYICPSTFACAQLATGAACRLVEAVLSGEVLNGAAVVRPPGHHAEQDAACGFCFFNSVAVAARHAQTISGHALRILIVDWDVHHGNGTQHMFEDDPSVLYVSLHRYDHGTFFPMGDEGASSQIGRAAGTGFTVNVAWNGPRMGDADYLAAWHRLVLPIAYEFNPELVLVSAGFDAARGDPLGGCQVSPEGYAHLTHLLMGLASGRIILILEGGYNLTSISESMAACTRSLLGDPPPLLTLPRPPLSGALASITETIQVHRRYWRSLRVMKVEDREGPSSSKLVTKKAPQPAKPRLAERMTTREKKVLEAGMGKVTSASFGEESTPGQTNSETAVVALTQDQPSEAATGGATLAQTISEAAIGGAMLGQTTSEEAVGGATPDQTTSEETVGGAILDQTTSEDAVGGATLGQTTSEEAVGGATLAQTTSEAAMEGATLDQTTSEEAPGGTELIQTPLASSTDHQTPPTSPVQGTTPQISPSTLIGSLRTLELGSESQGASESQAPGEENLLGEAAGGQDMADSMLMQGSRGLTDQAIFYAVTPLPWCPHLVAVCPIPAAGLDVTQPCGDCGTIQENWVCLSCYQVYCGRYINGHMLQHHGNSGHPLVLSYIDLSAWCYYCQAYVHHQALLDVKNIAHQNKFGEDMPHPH
Sequence of Human HDAC2 (Q92769 whole entry): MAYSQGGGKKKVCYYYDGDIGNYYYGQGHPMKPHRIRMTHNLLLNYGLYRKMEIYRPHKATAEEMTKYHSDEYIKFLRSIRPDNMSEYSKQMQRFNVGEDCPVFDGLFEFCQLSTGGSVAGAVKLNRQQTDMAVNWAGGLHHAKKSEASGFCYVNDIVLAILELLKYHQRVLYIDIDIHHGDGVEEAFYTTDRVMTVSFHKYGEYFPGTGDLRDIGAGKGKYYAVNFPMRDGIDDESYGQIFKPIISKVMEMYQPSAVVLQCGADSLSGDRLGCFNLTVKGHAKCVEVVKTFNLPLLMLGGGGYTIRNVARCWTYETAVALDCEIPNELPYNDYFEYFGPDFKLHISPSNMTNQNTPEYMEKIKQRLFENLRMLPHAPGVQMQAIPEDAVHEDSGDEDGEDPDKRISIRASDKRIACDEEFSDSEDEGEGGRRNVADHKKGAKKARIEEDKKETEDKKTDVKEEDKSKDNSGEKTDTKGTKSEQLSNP
Sequence of Human HDAC1 (Q13547 whole entry): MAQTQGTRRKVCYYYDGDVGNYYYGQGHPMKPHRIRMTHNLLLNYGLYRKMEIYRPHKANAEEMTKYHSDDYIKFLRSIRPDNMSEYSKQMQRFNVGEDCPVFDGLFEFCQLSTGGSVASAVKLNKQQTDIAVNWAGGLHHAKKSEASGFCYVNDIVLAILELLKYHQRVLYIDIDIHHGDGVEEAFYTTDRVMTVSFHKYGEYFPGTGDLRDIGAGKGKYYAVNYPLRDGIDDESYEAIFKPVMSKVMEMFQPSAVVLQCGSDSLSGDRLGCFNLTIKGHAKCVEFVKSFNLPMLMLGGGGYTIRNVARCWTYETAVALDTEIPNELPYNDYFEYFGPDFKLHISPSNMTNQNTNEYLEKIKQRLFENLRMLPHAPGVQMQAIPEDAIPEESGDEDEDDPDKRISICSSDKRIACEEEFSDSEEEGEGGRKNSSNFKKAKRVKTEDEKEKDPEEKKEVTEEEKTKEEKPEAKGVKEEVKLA
Sequence of Human HDAC3/NcoR2 (O15379 whole entry): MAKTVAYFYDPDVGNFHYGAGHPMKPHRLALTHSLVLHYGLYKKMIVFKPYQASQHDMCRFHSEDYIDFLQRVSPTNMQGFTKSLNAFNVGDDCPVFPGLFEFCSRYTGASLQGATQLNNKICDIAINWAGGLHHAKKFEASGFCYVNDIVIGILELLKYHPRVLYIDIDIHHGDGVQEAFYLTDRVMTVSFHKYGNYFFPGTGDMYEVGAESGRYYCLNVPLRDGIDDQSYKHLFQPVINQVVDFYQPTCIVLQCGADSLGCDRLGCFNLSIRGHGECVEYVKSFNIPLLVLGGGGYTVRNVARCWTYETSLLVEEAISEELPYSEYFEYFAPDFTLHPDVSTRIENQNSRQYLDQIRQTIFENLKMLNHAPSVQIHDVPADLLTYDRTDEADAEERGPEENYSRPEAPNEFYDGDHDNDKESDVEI
Sequence of Human HDAC3/NcoR2 (Q9Y618 395-489 partner): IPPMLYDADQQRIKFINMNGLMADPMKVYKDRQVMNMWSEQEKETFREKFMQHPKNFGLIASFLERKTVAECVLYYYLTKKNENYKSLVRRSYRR

IC50 (Human HDAC2) | IC50 (Human HDAC6) | IC50 [1] | IC50 (Human HDAC8) | IC50 (Human HDAC3/NcoR2) | IC50 (Human HDAC1) | IC50 [2] | melting point | SMILES | other results
 |  |  |  |  |  |  |  | COc1cccc2c1C(=O)c1c(O)c3c(c(O)c1C2=O)C[C@@](O)(C(=O)CO)C[C@@H]3O[C@H]1C[C@H](N)[C@H](O)[C@H](C)O1 [Doxorubicin, reference compound] | IC50 (MCF-7-FL): 2.37 µM; IC50 (BT474): 4.5 µM; IC50 (143b): 0.0861 µM; IC50 (HT-1080): 0.0256 µM; IC50 (SK-HEP-1): 0.165 µM
 |  |  |  |  |  |  |  | O=c1[nH]cc(F)c(=O)[nH]1 [Example 5-FU, 5-FU, reference compound] | IC50 (MIAPACA-2): 7.61 µM; IC50 (HCT-116): 1.71 µM; IC50 (HepG2): 3.28 µM
1390 nM | 10.8 nM | 66 nM | 340 nM | 512 nM | 473 nM | 34 nM | 139 to 141 °C | O=C(NO)c1ccc(CNC(=O)c2[nH]c(-c3ccccc3)cc2-c2ccc(O)cc2)cc1 [Example 10, N-{4-[(hydroxyamino)carbonyl]benzyl}-3-(4-hydroxyphenyl)-5-phenyl-1H-pyrrole-2-carboxamide] | 
1150 nM | 42.8 nM | 56 nM | 124 nM | 451 nM | 384 nM | 46.4 nM | 162 to 164 °C | O=C(NO)c1ccc(CNC(=O)c2[nH]c(-c3ccoc3)cc2-c2ccc(F)cc2)cc1 [Example 12, 3-(4-fluorophenyl)-5-(3-furyl)-N-{4-[(hydroxyamino)carbonyl]benzyl}-1H-pyrrole-2-carboxamide] | 
1260 nM | > 5000 nM | > 10000 nM | > 5000 nM | 3900 nM | 390 nM | 7010 nM | 142 to 143 °C (dec.) | COc1ccc(-c2cc(-c3ccccc3)[nH]c2C(=O)NCc2ccc(C(=O)Nc3ccccc3N)cc2)cc1 [Example 21, N-(4-{[(2-aminophenyl)amino]carbonyl}benzyl)-3-(4-methoxyphenyl)-5-phenyl-1H-pyrrole-2-carboxamide] | 
 |  |  |  |  |  |  |  | CCc1c2c(nc3ccc(OC(=O)N4CCC(N5CCCCC5)CC4)cc13)-c1cc3c(c(=O)n1C2)COC(=O)[C@]3(O)CC [Irinotecan, reference compound] | IC50 (Colo205): 16.6 µM
 |  |  |  |  |  |  |  | CC(=O)O[C@H]1C(=O)[C@@]2(C)[C@H]([C@H](OC(=O)c3ccccc3)[C@]3(O)C[C@H](OC(=O)[C@H](O)[C@@H](NC(=O)c4ccccc4)c4ccccc4)C(C)=C1C3(C)C)[C@]1(OC(C)=O)CO[C@@H]1C[C@@H]2O [Paclitaxel, reference compound] | IC50 (MCF-7-218): 0.285 µM

SMILES | IC50 (Human HDAC2) | IC50 (Human HDAC6) | IC50 [1] | IC50 (Human HDAC8) | IC50 (Human HDAC3/NcoR2) | IC50 (Human HDAC1) | IC50 [2] | melting point | other results
COc1ccc(-c2cc(-c3ccccc3)[nH]c2C(=O)NCc2ccc(C(=O)Nc3ccccc3S)cc2)cc1 [Example 22, 3-(4-methoxyphenyl)-5-phenyl-N-(4-{[(2-sulfanylphenyl)amino]carbonyl}benzyl)-1H-pyrrole-2-carboxamide] | > 5000 nM | > 5000 nM | > 10000 nM | > 5000 nM | > 5000 nM | > 5000 nM | > 5000 nM | 134 to 135 °C | 
COc1ccc(-c2cc(-c3ccccc3)[nH]c2C(=O)NCc2ccc(C(=O)Nc3ncccn3)cc2)cc1 [Example 26, 3-(4-methoxyphenyl)-5-phenyl-N-{4-[(pyrimidin-2-ylamino)carbonyl]benzyl}-1H-pyrrole-2-carboxamide] | > 5000 nM | > 5000 nM |  | > 5000 nM | > 5000 nM | > 5000 nM | > 5000 nM | 190 to 191 °C | 
